# Assay results reported in PMC9297976 (Journal of Applied Toxicology, 2021).
# Assays:
# medaka Esr1 (mEsr1) [1] = molecular target: T1, medaka Esr1 (mEsr1) (Oryzias latipes, UniProt P50241); assay: cell-based; parameters: species or system Japanese medaka (Oryzias latipes)
# T1 sequence (P50241 1-620): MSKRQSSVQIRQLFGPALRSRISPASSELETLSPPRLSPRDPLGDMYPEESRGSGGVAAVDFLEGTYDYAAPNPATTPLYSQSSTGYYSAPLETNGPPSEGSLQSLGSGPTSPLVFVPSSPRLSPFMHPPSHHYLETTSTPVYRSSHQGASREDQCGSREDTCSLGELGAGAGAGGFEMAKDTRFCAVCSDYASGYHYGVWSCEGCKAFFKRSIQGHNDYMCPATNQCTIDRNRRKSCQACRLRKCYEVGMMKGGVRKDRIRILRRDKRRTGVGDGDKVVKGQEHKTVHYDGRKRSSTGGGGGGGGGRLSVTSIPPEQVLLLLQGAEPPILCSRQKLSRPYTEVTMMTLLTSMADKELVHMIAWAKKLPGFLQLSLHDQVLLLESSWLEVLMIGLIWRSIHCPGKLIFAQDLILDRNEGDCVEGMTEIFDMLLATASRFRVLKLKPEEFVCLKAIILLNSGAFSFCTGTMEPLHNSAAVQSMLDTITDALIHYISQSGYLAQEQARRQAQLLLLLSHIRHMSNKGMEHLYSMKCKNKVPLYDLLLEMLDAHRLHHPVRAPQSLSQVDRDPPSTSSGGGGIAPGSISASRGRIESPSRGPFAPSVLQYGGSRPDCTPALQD
# [2] = ref Brooke et al., 2009; Saeger et al., 1979; cited from earlier work
# medaka ARβ (mArβ) [3] = molecular target: T2, medaka ARβ (mArβ) (Oryzias latipes, UniProt D1MV73); assay: Medaka ARβ reporter gene assay, agonist assay; assay type: cell-based, Japanese medaka (Oryzias latipes); conditions: MAC = 1.0 × 10^−5 M
# T2 sequence (D1MV73 1-744): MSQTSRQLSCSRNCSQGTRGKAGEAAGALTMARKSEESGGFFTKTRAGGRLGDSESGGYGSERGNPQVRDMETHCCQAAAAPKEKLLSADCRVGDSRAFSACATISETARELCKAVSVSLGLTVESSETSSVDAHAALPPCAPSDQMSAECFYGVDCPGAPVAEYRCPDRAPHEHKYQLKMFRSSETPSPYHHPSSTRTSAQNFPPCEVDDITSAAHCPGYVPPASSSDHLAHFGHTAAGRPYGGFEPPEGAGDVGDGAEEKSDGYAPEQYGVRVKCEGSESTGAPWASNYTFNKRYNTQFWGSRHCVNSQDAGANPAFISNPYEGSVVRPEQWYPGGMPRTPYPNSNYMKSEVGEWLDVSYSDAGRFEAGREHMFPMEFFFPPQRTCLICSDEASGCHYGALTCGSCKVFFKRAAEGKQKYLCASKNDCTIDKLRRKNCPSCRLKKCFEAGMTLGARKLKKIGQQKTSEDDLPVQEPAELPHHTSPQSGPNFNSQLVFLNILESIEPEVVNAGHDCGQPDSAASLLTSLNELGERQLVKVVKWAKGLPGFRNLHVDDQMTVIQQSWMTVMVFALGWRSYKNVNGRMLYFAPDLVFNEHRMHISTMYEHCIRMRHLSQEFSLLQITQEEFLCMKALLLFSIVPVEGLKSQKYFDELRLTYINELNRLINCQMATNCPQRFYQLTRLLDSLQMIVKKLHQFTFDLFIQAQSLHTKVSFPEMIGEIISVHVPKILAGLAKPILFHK
# medaka ARβ (mArβ) [4] = molecular target: T2, medaka ARβ (mArβ); assay: Medaka ARβ reporter gene assay, antagonist assay; assay type: cell-based, Japanese medaka (Oryzias latipes); conditions: 11‐KT spiked at 50 nM (D); MAC = 1.0 × 10^−5 M
# [5] = system: Japanese medaka (Oryzias latipes); assay: Fish Short‐Term Reproduction Assay; assay type: in vivo; conditions: for GSI Female / GSI Male / HSI Female / HSI Male / Length Female / Length Male / Weight Female / Weight Male: completion of exposure
# medaka Esr1 (mEsr1) [6] = molecular target: T1, medaka Esr1 (mEsr1); assay: Medaka Esr1 reporter gene assay, antagonist assay; assay type: cell-based, Japanese medaka (Oryzias latipes); conditions: E2 spiked at 1.0 nM (B); MAC = 1.0 × 10^−5 M
# [7] = 44.9 μg/L measured, 21 d, sig. ↓ vs control
# [8] = measured concentration 2.13 μg/L
# [9] = measured concentration 7.19 μg/L
# [10] = measured concentration 17.1 μg/L
# [11] = measured concentration 44.9 μg/L
smiles,measurement,setting,value
"O=P(Oc1ccccc1)(Oc1ccccc1)Oc1ccccc1 [TPP, Triphenyl phosphate]",EC50,medaka Esr1 (mEsr1) [1],9.7 µM
same,In vitro positive: Esr,medaka Esr1 (mEsr1) [1]; mode of action in which EC50 or PC10 was obtained in RGA,Esr
same,Water solubility,[2],1 to 1.9 µg/mL
same,Agonistic activity,medaka ARβ (mArβ) [3],NE (MAC = 1.0 × 10^−5 M)
same,Antagonistic activity,medaka ARβ (mArβ) [4],NE (MAC = 1.0 × 10^−5 M)^(D)
same,Fertility rate,"[5]; 2.13 μg/L measured, 21 d",89 ± 4.9%
same,"Hepatic VTG, female","[5]; 2.13 μg/L measured, 21 d",542 ± 115 ng/mg‐liver
same,"Hepatic VTG, male","[5]; 2.13 μg/L measured, 21 d",6.9 ± 4.0 ng/mg‐liver
same,Mortality,"[5]; 2.13 μg/L measured, 21 d",0.0%
same,"Mortality, number of dead fish","[5]; 2.13 μg/L measured, 21 d",0
same,Number of fertilized eggs (per female per day),"[5]; 2.13 μg/L measured, 21 d",18 ± 3.1
same,Number of total eggs (per female per day),"[5]; 2.13 μg/L measured, 21 d",20 ± 2.7
same,SSC female (joint plates with papillary processes),"[5]; 2.13 μg/L measured, 21 d",0 ± 0
same,SSC male (joint plates with papillary processes),"[5]; 2.13 μg/L measured, 21 d",83 ± 7.4
same,Fertility rate,"[5]; 7.19 μg/L measured, 21 d",91 ± 3.8%
same,"Hepatic VTG, male","[5]; 7.19 μg/L measured, 21 d",8.4 ± 9.0 ng/mg‐liver
same,Mortality,"[5]; 7.19 μg/L measured, 21 d",0.0%
same,"Mortality, number of dead fish","[5]; 7.19 μg/L measured, 21 d",0
same,Number of fertilized eggs (per female per day),"[5]; 7.19 μg/L measured, 21 d",17 ± 3.4
same,Number of total eggs (per female per day),"[5]; 7.19 μg/L measured, 21 d",19 ± 3.1
same,SSC female (joint plates with papillary processes),"[5]; 7.19 μg/L measured, 21 d",0 ± 0
same,SSC male (joint plates with papillary processes),"[5]; 7.19 μg/L measured, 21 d",84 ± 6.9
same,"Hepatic VTG, female","[5]; 7.19 μg/L measured, 21 d, sig. ↓ vs control",360 ± 60 ng/mg‐liver
same,Fertility rate,"[5]; 17.1 μg/L measured, 21 d",93 ± 2.2%
same,"Hepatic VTG, male","[5]; 17.1 μg/L measured, 21 d",11 ± 9.4 ng/mg‐liver
same,Mortality,"[5]; 17.1 μg/L measured, 21 d",0.0%
same,"Mortality, number of dead fish","[5]; 17.1 μg/L measured, 21 d",0
same,Number of fertilized eggs (per female per day),"[5]; 17.1 μg/L measured, 21 d",19 ± 1.8
same,Number of total eggs (per female per day),"[5]; 17.1 μg/L measured, 21 d",20 ± 2.0
same,SSC female (joint plates with papillary processes),"[5]; 17.1 μg/L measured, 21 d",0 ± 0
same,SSC male (joint plates with papillary processes),"[5]; 17.1 μg/L measured, 21 d",83 ± 7.2
same,"Hepatic VTG, female","[5]; 17.1 μg/L measured, 21 d, sig. ↓ vs control",420 ± 77 ng/mg‐liver
same,Fertility rate,"[5]; 44.9 μg/L measured, 21 d",91 ± 3.9%
same,"Hepatic VTG, male","[5]; 44.9 μg/L measured, 21 d",8.8 ± 8.1 ng/mg‐liver
same,Mortality,"[5]; 44.9 μg/L measured, 21 d",4.2%
same,"Mortality, number of dead fish","[5]; 44.9 μg/L measured, 21 d",1
same,SSC female (joint plates with papillary processes),"[5]; 44.9 μg/L measured, 21 d",0 ± 0
same,SSC male (joint plates with papillary processes),"[5]; 44.9 μg/L measured, 21 d",90 ± 8.0
same,"Hepatic VTG, female",[5]; [7],417 ± 70 ng/mg‐liver
same,Number of fertilized eggs (per female per day),[5]; [7],15 ± 3.5
same,Number of total eggs (per female per day),[5]; [7],16 ± 3.2
same,"Fecundity, number of total eggs (in words)",[5]; 21 d,statistically significant decrease
same,LOECmVTG,[5]; LOEC on VTG induction in males,ND (>44.9) μg/L
same,LOECREPRO,[5]; LOEC on reproduction (fecundity and/or fertility),44.9 µg/L
same,Fertility rate (in words),[5]; chemicals with significant decrease of number of total eggs,no significant effect
same,LOECREPRO (reduction in fecundity or fertility),[5]; concentrations without overt toxicity,44.9 µg/L
same,LOECTOX,[5]; lowest observed effect concentration on mortality,ND (>44.9) μg/L
same,GSI Female,[5]; [8],7.9 ± 0.5%
same,GSI Male,[5]; [8],0.87 ± 0.17%
same,HSI Female,[5]; [8],3.5 ± 0.39%
same,HSI Male,[5]; [8],1.4 ± 0.12%
same,Length Female,[5]; [8],35.3 ± 0.7 mm
same,Length Male,[5]; [8],37.9 ± 1.1 mm
same,Weight Female,[5]; [8],449 ± 19 mg
same,Weight Male,[5]; [8],532 ± 44 mg
same,GSI Female,[5]; [9],8.1 ± 0.6%
same,GSI Male,[5]; [9],0.95 ± 0.09%
same,HSI Female,[5]; [9],3.1 ± 0.21%
same,HSI Male,[5]; [9],1.7 ± 0.29%
same,Length Female,[5]; [9],35.5 ± 0.3 mm
same,Length Male,[5]; [9],38.0 ± 1.1 mm
same,Weight Female,[5]; [9],464 ± 27 mg
same,Weight Male,[5]; [9],544 ± 49 mg
same,GSI Female,[5]; [10],7.7 ± 0.7%
same,GSI Male,[5]; [10],0.94 ± 0.10%
same,HSI Female,[5]; [10],3.6 ± 0.46%
same,HSI Male,[5]; [10],1.7 ± 0.24%
same,Length Female,[5]; [10],35.2 ± 1.0 mm
same,Length Male,[5]; [10],37.7 ± 1.0 mm
same,Weight Female,[5]; [10],468 ± 34 mg
same,Weight Male,[5]; [10],539 ± 31 mg
same,GSI Female,[5]; [11],9.4 ± 1.3%
same,GSI Male,[5]; [11],0.80 ± 0.07%
same,HSI Female,[5]; [11],3.6 ± 0.60%
same,HSI Male,[5]; [11],1.7 ± 0.13%
same,Length Female,[5]; [11],34.4 ± 0.4 mm
same,Length Male,[5]; [11],38.3 ± 1.1 mm
same,Weight Female,[5]; [11],432 ± 32 mg
same,Weight Male,[5]; [11],583 ± 68 mg
same,Antagonistic activity,medaka Esr1 (mEsr1) [6],NE (MAC = 1.0 × 10^−5 M)^(B)
